According to US8771723B2, “Compositions for reducing gastro-intestinal methanogenesis in ruminants” (priority 2009, dated 2014):
Several values for one entry are separate records, joined by “and”; a condition that tells them apart may be missing. Equal values may be shown once. Marks after values point to notes of the source that are not given here.

Legend:
rumen microbes = experiment: In vitro rumen fermentation simulation; format: cell-based, cow
Method: Feed used in rumen simulation was 1 gram of dry matter and composed of grass silage (0.5 g dry matter) and commercial compound feed, 0.5 g dry matter. The treatments were as indicate in the following table: […] All the treatments were run in quadruplicates, the total number of simulation vessels being 72. […] Finally, 2 ml of fresh, strained rumen fluid was added in the serum bottles, the final volume being 40 ml. This inoculation started the actual rumen simulation. Inoculation time for each vessel was registered and taken into account when sampling and stopping the fermentation. Rumen fermentation simulation was continued for 12 hours at 37° C. […] These samples were analysed for methane to see the effect of treatments on the total methane produced by rumen bacteria during the 12 hours. The analysis was performed by gas chromatography using flame ionisation detector and pure methane and ethane as standards. NO3 and NO2 were analysed from all simulation vessels at 0, 2, 4 and 12 hours. […] NH4 was analysed from all simulation vessels at 0, 2, 4 and 12 hours. The method was colorimetric and based on phenol-hypochlorite reaction. Statistical analysis consisted of two-tailed t-tests for all measured parameters. The tests were performed against the treatment with […] and MgSO4 amendment (treatments 2 and 17). t-test was chosen to let the individual treatments be independent of the other treatments tested simultaneously.

methanogens = experiment: Enteric methanogen counts; settings: in vivo
[1] = Feed intake, CO2/O2 exchange and heat production in respiration chambers; format: in vivo, male Texel Cross lambs
Method: After the adaptation period four animals (one block) were housed in indirect respiration calorimetry chambers for a week to determine gaseous exchange. In the following weeks a new block of sheep was introduced to the chambers each week. Each respiration chamber housed an individual sheep. The respiration calorimetry chambers used are described in detail in […] et al. (1987). […] Net production or consumption of these gases was calculated from the difference in concentrations between in and outgoing air multiplied by air flow and subsequently recalculated to standard circumstances (0° C., 101 kPa, no water vapour). […] Before morning feeding, orts were removed from the feed bins and weighed to determine voluntary feed intake. During the week in the respiration chambers, feed availability was restricted to 95% of the feed consumed by the animal consuming the least feed within a block in the week prior to housing in the respiration chambers. Feed restriction was applied to avoid interactions between the effect of the additives on DMI and the effect on methane production.

[2] = system: methane emissions from enteric fermentation; experiment: Methane production in indirect respiration calorimetry chambers; format: in vivo, male Texel Cross lambs; settings: for Actual decrease in methane production as CH4 mass: CH4=0.714 g/l; for Methane production rate over 24 h versus control: fed once daily, nitrate: immediately after feeding, SO4: entire 24 h-period; for Actual decrease in methane production / Reduction in daily methane production: respiration chambers; for Actual decrease in methane production: 24.9 g NO3 or 27.0 g SO4 consumed per day; for Reduction in daily methane production: addition to the diet
Text: Feed intake and growth were monitored during the experiment. […] After the adaptation period four animals (one block) were housed in indirect respiration calorimetry chambers for a week to determine gaseous exchange. In the following weeks a new block of sheep was introduced to the chambers each week. Each respiration chamber housed an individual sheep. The respiration calorimetry chambers used are described in detail in […] et al. (1987). […] Net production or consumption of these gases was calculated from the difference in concentrations between in and outgoing air multiplied by air flow and subsequently recalculated to standard circumstances (0° C., 101 kPa, no water vapour). […] Animals were blocked by weight and subsequently within a block randomly allotted to one of four dietary treatments: CON, NO3, SO4 or NO3+SO4. During the adaptation phase, sheep were introduced to the experimental premixes in steps of 25% per week. […] Before morning feeding, orts were removed from the feed bins and weighed to determine voluntary feed intake. During the week in the respiration chambers, feed availability was restricted to 95% of the feed consumed by the animal consuming the least feed within a block in the week prior to housing in the respiration chambers. Feed restriction was applied to avoid interactions between the effect of the additives on DMI and the effect on methane production.

[3] = Methemoglobin content of blood during adaptation period
Method: Blood was sampled at d2, d8, d15, d22 and d28 at 1, 3 and 5 h post-feeding. […] Blood samples were taken in heparin containing collection tubes (Vacutainers) and stored in the refrigerator directly after sampling. At the end of the sampling day, samples were dispatched for analyses and were analyzed the next day.

[4] = Blood methaemoglobin in cows supplemented with nitrate and sulphate; format: in vivo
Method: The experiment was a randomized block design, with 4 animals per block and different sulphate doses as treatments. Animals were blocked by milk yield and subsequently within a block randomly allotted to one of four dietary treatments: NO3, NO3+low SO4, NO3+medium SO4, NO3+high SO4.
The dietary additives were included in the premix (table 5). At feeding, the premixes were delivered to cows as part of a Total Mixed Ration. Water was freely available during the experiment.
Blood was sampled 3 h post-feeding twice a week throughout the experiment to closely monitor the concentration of methaemoglobin. Blood was collected into evacuated tubes containing heparin, plunged immediately into ice-cold water and stored in a refrigerator at 4 C. At the end of each sampling day, samples were dispatched for analysis and were analyzed the next day.

[5] = Feed intake and growth during the 4-week adaptation to dietary nitrate and sulphate; format: in vivo, male Texel Cross lambs; settings: for Feed intake: main effect, additive in diet (Yes); for Effect on body weight gain: adaptation stage; for Body weight (BW) / Body weight gain (BWG) overall / Body weight gain (BWG): main effect (Yes); for Body weight gain (BWG) overall: overall adaptation stage
Text: Feed intake and growth were monitored during the experiment. […] The Animal Care and Use Committee of the Animal Sciences Group, WUR, Lelystad approved the experimental protocol of this experiment. […] During a four-week adaptation phase to the dietary additives, animals were housed in individual calf hutches to allow individual feeding. Sheep were weighed weekly to monitor growth during the entire experiment. […] Animals were blocked by weight and subsequently within a block randomly allotted to one of four dietary treatments: CON, NO3, SO4 or NO3+SO4. […] At feeding, the premixes were hand-mixed into the diets. Water was freely available during the experiment. […] Before morning feeding, orts were removed from the feed bins and weighed to determine voluntary feed intake. During the week in the respiration chambers, feed availability was restricted to 95% of the feed consumed by the animal consuming the least feed within a block in the week prior to housing in the respiration chambers. Feed restriction was applied to avoid interactions between the effect of the additives on DMI and the effect on methane production. […] Limestone was added to the control diet to ensure equal Ca-intake between treatments. MgO was included in the diet to obtain similar Mg-levels between diets. The volume of the different additions to the diets was different for each treatment, and wood cellulose was used to balance for this.

[6] = cited from earlier work

5Ca(NO3)2•NH4NO3•10H2O [Nitrate]
suppression of absolute methane production (rumen microbes; 12-hour simulation (FIG. 5A)): ~80%
total produced methane (rumen microbes; 12-hour simulation, 14 mM nitrate): 1.5 mL
residual concentration of ammonium (rumen microbes; 12 hours, 14 mM nitrate added (FIG. 8C)): 18 mM
effect on enteric methanogen counts (methanogens): reduce enteric methanogen counts
Oxygen consumption lower than control ([1]; directly after feeding at 8 AM): 10-18%
MetHb-levels estimated from oxygen consumption ([1]; regression equation of Takahashi et al., 1998): approximately 5%
Reduction in oxygen consumption ([1]; respiration chambers, daily): 6%
Actual decrease in methane production as CH4 mass [2]: 5.8 g
Methane production rate over 24 h versus control [2]: remained at a far lower level
Actual decrease in methane production [2]: 8.1 L
Reduction in daily methane production [2]: 34%
blood MetHb-content ([3]; 75% of the inclusion rate, 3 h post feeding, one sheep tested positive): 3 % of Hb
MetHb-values ([3]; 100% inclusion rate for one week (d28), 3 h post-feeding, two individual sheep tested positive, listed as NO3): 7 % of Hb and 3 % of Hb
MetHb-levels, highest observed ([3]; whole experiment, detection limit 2% of Hb): ≤ 7 % of Hb
rise in blood methaemoglobin ([4]; 100% inclusion rate of nitrate): more pronounced
Blood methaemoglobin ([4]; cows, diets with 3% NO3 of DM and increasing SO4 (table 5)): 13.1^a % of haemoglobin
Feed intake ([5]; Week 1 of adaptation): 2686 g/lamb/day
Feed intake ([5]; Week 2 of adaptation): 2591 g/lamb/day
Feed intake ([5]; Week 3 of adaptation): 2526 g/lamb/day
Feed intake ([5]; Week 4 of adaptation): 2411 g/lamb/day
Effect on body weight gain [5]: did not affect body weight gain
Body weight (BW) ([5]; day 0): 43.0 kg/lamb
Body weight (BW) ([5]; day 7): 43.6 kg/lamb
Body weight (BW) ([5]; day 14): 44.7 kg/lamb
Body weight (BW) ([5]; day 21): 45.2 kg/lamb
Body weight (BW) ([5]; day 28): 45.5 kg/lamb
Body weight gain (BWG) overall [5]: 2.46 kg/lamb/week
Feed intake reduction ([5]; period beyond week 1 (more than 25% of final inclusion rate)): approximately 9%
Body weight gain (BWG) ([5]; week 1): 0.54 kg/lamb/week
Body weight gain (BWG) ([5]; week 2): 1.08 kg/lamb/week
Body weight gain (BWG) ([5]; week 3): 0.59 kg/lamb/week
Body weight gain (BWG) ([5]; week 4): 0.25 kg/lamb/week
MetHb-levels ([6]; Sar et al. (2004), 0.9 g NO3/kg^0.75 of BW intraruminally, no adaptation): 18.4 % of Hb

O=[N+]([O-])[O-].[Na+] [NaNO3, reference compound]
Concentrations of MetHb ([6]; Takahashi et al., 1998, 1.5 g/kg BW^0.75 into the rumen): over 30%

O=S(=O)([O-])[O-].[Mg+2] [Sulphate, MgSO4 (anhydrous)]
effect on enteric methanogen counts (methanogens): does not
Actual decrease in methane production as CH4 mass [2]: 2.9 g
Methane production rate over 24 h versus control [2]: consistently lower than the control treatment
Actual decrease in methane production [2]: 4 L
Reduction in daily methane production [2]: 19%
Feed intake ([5]; Week 1 of adaptation): 2724 g/lamb/day
Feed intake ([5]; Week 2 of adaptation): 2770 g/lamb/day
Feed intake ([5]; Week 3 of adaptation): 2618 g/lamb/day
Feed intake ([5]; Week 4 of adaptation): 2457 g/lamb/day
Effect on body weight gain [5]: did not affect body weight gain
Body weight (BW) ([5]; day 0): 42.4 kg/lamb
Body weight (BW) ([5]; day 7): 43.1 kg/lamb
Body weight (BW) ([5]; day 14): 44.3 kg/lamb
Body weight (BW) ([5]; day 21): 44.7 kg/lamb
Body weight (BW) ([5]; day 28): 44.8 kg/lamb
Body weight gain (BWG) overall [5]: 2.34 kg/lamb/week
Body weight gain (BWG) ([5]; week 1): 0.70 kg/lamb/week
Body weight gain (BWG) ([5]; week 2): 1.20 kg/lamb/week
Body weight gain (BWG) ([5]; week 3): 0.38 kg/lamb/week
Body weight gain (BWG) ([5]; week 4): 0.06 kg/lamb/week

CC(O)C(=O)O (centres unmarked) [lactic acid, Na-lactate]
gas production, initial (rumen microbes; first 4 hours, compared to the nitrate enriched treatment (Calcinit + MgSO4)): suppressed
cumulative gas production, later time points (rumen microbes; later time points up to 12 h, compared to Calcinit + MgSO4): continued to suppress gas production dose dependently
